{
  "source": "ChEMBL document CHEMBL1287691",
  "about": "“Pyrazole derivatives from azines of substituted phenacyl aryl/cyclohexyl sulfides and their antimycobacterial activity” (2010)",
  "key": {"[1]": {"system": "Mycobacterium tuberculosis", "test": "Antimycobacterial activity against Mycobacterium tuberculosis H37Rv by agar dilution method", "assay_type": "functional"}, "[2]": {"system": "Mycobacterium tuberculosis", "test": "Antimycobacterial activity against Mycobacterium tuberculosis H37Rv at 6.25 ug/ml", "assay_type": "functional"}},
  "data": [
    {"smiles": "Clc1ccc(S/C=C(\\c2ccc3ccccc3c2)n2cc(Sc3ccc(Cl)cc3)c(-c3ccc4ccccc4c3)n2)cc1", "values": [
      {"measurement": "MIC", "setting": "[1]", "value": 6.25, "unit": "µg/mL"}
    ]},
    {"smiles": "Clc1ccc(S/C=C(/c2ccc3ccccc3c2)n2cc(Sc3ccc(Cl)cc3)c(-c3ccc4ccccc4c3)n2)cc1", "values": [
      {"measurement": "MIC", "setting": "[1]", "value": 12.5, "unit": "µg/mL"}
    ]},
    {"smiles": "CC(=O)/C(=N/Nc1c(C)n[nH]c1C)C(=O)O", "values": [
      {"measurement": "inhibition at 6.25 µg/mL", "setting": "[2]", "value": 29, "unit": "%"}
    ]},
    {"smiles": "COCC(=O)/C(=N/Nc1c(C)n[nH]c1C)C(=O)OC", "values": [
      {"measurement": "inhibition at 6.25 µg/mL", "setting": "[2]", "value": 28, "unit": "%"}
    ]},
    {"smiles": "Clc1ccc(S/C=C(/c2ccc(Cl)cc2)n2cc(Sc3ccc(Cl)cc3)c(-c3ccc(Cl)cc3)n2)cc1", "values": [
      {"measurement": "MIC", "setting": "[1]", "value": 3.13, "unit": "µg/mL"}
    ]},
    {"smiles": "Clc1ccc(S/C=C(/c2ccccc2)n2cc(Sc3ccc(Cl)cc3)c(-c3ccccc3)n2)cc1", "values": [
      {"measurement": "MIC", "setting": "[1]", "value": "> 25", "unit": "µg/mL"}
    ]},
    {"smiles": "C(/SC1CCCCC1)=C(\\c1ccccc1)n1cc(SC2CCCCC2)c(-c2ccccc2)n1", "values": [
      {"measurement": "MIC", "setting": "[1]", "value": 12.5, "unit": "µg/mL"}
    ]},
    {"smiles": "Cc1ccc(/C(=C/SC2CCCCC2)n2cc(SC3CCCCC3)c(-c3ccc(C)cc3)n2)cc1", "values": [
      {"measurement": "MIC", "setting": "[1]", "value": 6.25, "unit": "µg/mL"}
    ]},
    {"smiles": "COc1ccc(/C(=C/SC2CCCCC2)n2cc(SC3CCCCC3)c(-c3ccc(OC)cc3)n2)cc1", "values": [
      {"measurement": "MIC", "setting": "[1]", "value": 12.5, "unit": "µg/mL"}
    ]},
    {"smiles": "O=[N+]([O-])c1ccc(/C(=C/SC2CCCCC2)n2cc(SC3CCCCC3)c(-c3ccc([N+](=O)[O-])cc3)n2)cc1", "values": [
      {"measurement": "MIC", "setting": "[1]", "value": 1.56, "unit": "µg/mL"}
    ]},
    {"smiles": "Clc1ccc(S/C=C(\\c2ccc(Cl)cc2)n2cc(Sc3ccc(Cl)cc3)c(-c3ccc(Cl)cc3)n2)cc1", "values": [
      {"measurement": "MIC", "setting": "[1]", "value": 1.56, "unit": "µg/mL"}
    ]},
    {"smiles": "COc1ccc(/C(=C\\Sc2ccc(Cl)cc2)n2cc(Sc3ccc(Cl)cc3)c(-c3ccc(OC)cc3)n2)cc1", "values": [
      {"measurement": "MIC", "setting": "[1]", "value": 6.25, "unit": "µg/mL"}
    ]},
    {"smiles": "Clc1ccc(S/C=C(\\c2ccccc2)n2cc(Sc3ccc(Cl)cc3)c(-c3ccccc3)n2)cc1", "values": [
      {"measurement": "MIC", "setting": "[1]", "value": 12.5, "unit": "µg/mL"}
    ]},
    {"smiles": "Cc1ccc(/C(=C\\Sc2ccc(Cl)cc2)n2cc(Sc3ccc(Cl)cc3)c(-c3ccc(C)cc3)n2)cc1", "values": [
      {"measurement": "MIC", "setting": "[1]", "value": 6.25, "unit": "µg/mL"}
    ]},
    {"smiles": "Cc1ccc(S/C=C(\\c2ccc(Cl)cc2)n2cc(Sc3ccc(C)cc3)c(-c3ccc(Cl)cc3)n2)cc1", "values": [
      {"measurement": "MIC", "setting": "[1]", "value": 12.5, "unit": "µg/mL"}
    ]},
    {"smiles": "Clc1ccc(/C(=C\\Sc2ccccc2)n2cc(Sc3ccccc3)c(-c3ccc(Cl)cc3)n2)cc1", "values": [
      {"measurement": "MIC", "setting": "[1]", "value": 25, "unit": "µg/mL"}
    ]},
    {"smiles": "C(/SC1CCCCC1)=C(/c1ccccc1)n1cc(SC2CCCCC2)c(-c2ccccc2)n1", "values": [
      {"measurement": "MIC", "setting": "[1]", "value": 6.25, "unit": "µg/mL"}
    ]},
    {"smiles": "Cc1ccc(/C(=C\\SC2CCCCC2)n2cc(SC3CCCCC3)c(-c3ccc(C)cc3)n2)cc1", "values": [
      {"measurement": "MIC", "setting": "[1]", "value": 3.13, "unit": "µg/mL"}
    ]},
    {"smiles": "COc1ccc(/C(=C\\SC2CCCCC2)n2cc(SC3CCCCC3)c(-c3ccc(OC)cc3)n2)cc1", "values": [
      {"measurement": "MIC", "setting": "[1]", "value": 3.13, "unit": "µg/mL"}
    ]},
    {"smiles": "Clc1ccc(/C(=C\\SC2CCCCC2)n2cc(SC3CCCCC3)c(-c3ccc(Cl)cc3)n2)cc1", "values": [
      {"measurement": "MIC", "setting": "[1]", "value": 1.56, "unit": "µg/mL"}
    ]},
    {"smiles": "O=[N+]([O-])c1ccc(/C(=C\\SC2CCCCC2)n2cc(SC3CCCCC3)c(-c3ccc([N+](=O)[O-])cc3)n2)cc1", "values": [
      {"measurement": "MIC", "setting": "[1]", "value": 0.78, "unit": "µg/mL"}
    ]},
    {"smiles": "Clc1ccc(/C(=C/Sc2ccccc2)n2cc(Sc3ccccc3)c(-c3ccc(Cl)cc3)n2)cc1", "values": [
      {"measurement": "MIC", "setting": "[1]", "value": "> 25", "unit": "µg/mL"}
    ]},
    {"smiles": "Cc1ccc(S/C=C(/c2ccc(Cl)cc2)n2cc(Sc3ccc(C)cc3)c(-c3ccc(Cl)cc3)n2)cc1", "values": [
      {"measurement": "MIC", "setting": "[1]", "value": 12.5, "unit": "µg/mL"}
    ]},
    {"smiles": "CC[C@@H](CO)NCCN[C@@H](CC)CO", "note": "[ETHAMBUTOL]", "values": [
      {"measurement": "MIC", "setting": "[1]", "value": 1.56, "unit": "µg/mL"}
    ]},
    {"smiles": "NNC(=O)c1ccncc1", "note": "[ISONIAZID]", "values": [
      {"measurement": "MIC", "setting": "[1]", "value": 0.05, "unit": "µg/mL"}
    ]},
    {"smiles": "NC(=O)c1cnccn1", "note": "[PYRAZINAMIDE]", "values": [
      {"measurement": "MIC", "setting": "[1]", "value": 6.25, "unit": "µg/mL"}
    ]}
  ]
}
